What was measured:
[1] = system: glucose transporter (GLUT) on erythrocyte ghosts; test: binding to erythrocyte ghosts as the model of glucose transporter
Excerpt: In order to conjugate GLUT inhibitors to […], the GLUT inhibitors were first functionalized with an amino group to facilitate their conjugation to insulin (FIGS. 2 and 3). […] For inhibitor 2 (In2), an amino group was introduced through Michael addition reaction while maintaining the main structures unchanged. In order to conjugate insulin to forskolin and inhibitor 2, insulin was firstly reacted with Traut's reagent to introduce a thiol group and used directly for conjugating inhibitors, which was also beforehand reacted with SMCC crosslinker.

[2] = system: type 1 diabetic mouse model induced by STZ; test: in vivo therapeutic efficacy, blood glucose levels in type 1 diabetic mice; details: STZ type 1 diabetic mice; 300 IU/kg insulin conjugate, 150 IU/kg free insulin
Excerpt: PBS was used as a control. The dose was set to 300 IU/kg for insulin conjugate and 150 IU/kg for free insulin to avoid severe hypoglycemia. Error bars represent the S.D. of three independent experiments (n=3).
(§1) PBS was used as a control.

[3] = type: physicochemical
Excerpt: Herein, a new strategy utilizing the in situ living cells as the carrier for insulin was developed. […] In addition, the introduction of water-insoluble inhibitors onto insulin can greatly reduce its water solubility at pH 7.4. After subcutaneously injected, insulin conjugate formed a depot beneath the skin, which can slowly release insulin conjugate into the blood. Then, insulin conjugate reaches the GLUT on living cells, including adipose cells, muscle cells and blood cells, during blood circulation and consequently establishing an insulin pool. Of note, the GLUT pool on living cells can also buffer the high level of insulin in blood in the initial period post-injection and works as the reservoir of insulin to smooth the level of blood insulin. The adsorption of insulin-conjugate to cell membranes is in a dynamic balance with insulin conjugate in interstitial fluid and blood under a normoglycemic state. The insulin conjugate binding on living cell membranes can be released in a glucose-triggered manner under a hyperglycemic state because of the competitive binding from elevated glucose level.
In order to conjugate GLUT inhibitors to […], the GLUT inhibitors were first functionalized with an amino group to facilitate their conjugation to insulin (FIGS. 2 and 3). For forskolin, the introduction of the amino group and alkyl chains can enhance its binding affinity to GLUT. […]

[4] = system: diabetic mice; details: mouse, in vivo, sc
Description: The in vivo therapeutic efficacy of insulin conjugates was evaluated in type 1 diabetic mouse model induced by STZ. The diabetic mice were assigned to four groups treated with insulin conjugates or native insulin. PBS was used as a control.

[5] = system: diabetic mice; test: multiple intraperitoneal glucose tolerance test; type: in vivo, mouse; details: subcutaneous injection, 400 IU/kg insulin conjugate
Excerpt: Insulin-F was subcutaneously injected. The dose was set to 400 IU/kg for insulin conjugate. Error bars represent the S.D. of three independent experiments (n=5).
as §1

## C=C1[C@@H](C)[C@H]2[C@H](Cc3ccccc3)NC(=O)[C@]23OC(=O)/C=C/[C@H](O)CCC[C@@H](C)C/C=C/[C@H]3[C@@H]1O [cytochalasin B, reference compound]
[1]; competitor against insulin-F binding, indicates the binding is GLUT specific
  inhibition of insulin-F binding on erythrocyte ghosts: could be inhibited

## insulin [free insulin]
[2]
  time blood glucose level maintained within the normal range (<200 mg/dL): three

## insulin-forskolin: insulin conjugated via Traut's reagent thiol and SMCC crosslinker to amino-functionalized forskolin, a GLUT inhibitor
[3]
  solubility at pH 7.4: insoluble
[1]; erythrocyte ghosts as the model of glucose transporter
  binding to erythrocyte ghost membrane: able to bind to membrane
[4]
  long-lasting behavior by living imaging: long-lasting behavior of insulin-F was further confirmed
[5]
  blood-glucose-regulating ability in multiple glucose tolerance test: long-lasting blood-glucose-regulating ability

Reference: patent US11760785B2, “Glucose transporter inhibitor-modified insulin for glucose-responsive insulin delivery” (NORTH CAROLINA STATE UNIVERSITY, priority 2017, dated 2023)
